Key:
[1] = tested on: YST-1; test: relative IC50 (inflection point of fitted dose-response curve, CellTiter-Glo viability, 72 h; top asymptote may be below 50% inhibition); higher = less potent
Procedure, shortened: (§1)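 For this screen, 384-well plates were preprinted with each compound at five concentrations in 10-fold steps and seeded with MPNST cell lines or primary human Schwann cells at 750–1000 cells per well. Incubation lasted 72 h at 37 °C, 5% CO2, and CellTiter-Glo ATP luminescence, scaled between vehicle and positive-control wells and averaged over duplicates where available, served as viability. Logistic fits with four parameters were applied. Relative IC50 (censored at the top concentration) and drug sensitivity score derive from these fits, and percent inhibition is at the top concentration.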

[2] = tested on: HS-PSS; test: relative IC50 (inflection point of fitted dose-response curve, CellTox-Green cytotoxicity, 72 h; top asymptote may be below 50%); higher = less potent
Procedure, shortened: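 MPNST cell lines and primary human Schwann cells were grown for 72 h at 37 °C in 384-well plates containing five 10-fold compound dilutions. CellTox-Green, added before seeding at a final 1:1000 dilution, gave fluorescence from DNA released by disrupted cells, and signals were scaled to vehicle and positive-control wells. Curves were fitted with a four-parameter logistic model. Drug sensitivity score and relative IC50 come from these fits, with IC50 censored at the top concentration.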

[3] = tested on: HS-Sch-2; test: relative IC50 (inflection point of fitted dose-response curve, CellTiter-Glo viability, 72 h; top asymptote may be below 50% inhibition); higher = less potent
Procedure, shortened: as §1

O=c1ncn2nc(Sc3ccc(F)cc3F)ccc2c1-c1c(Cl)cccc1Cl [VX 745]
relative IC50 [1]: 778 nM | relative IC50 [2]: > 10000 nM

NC(=O)c1cccc(-c2cccc(OC(=O)NC3CCCCC3)c2)c1 [URB597]
relative IC50 [3]: > 1000 nM | relative IC50 [1]: > 1000 nM | relative IC50 [2]: > 1000 nM

Cc1ccccc1C(C(=O)NC1CCCCC1)N(C(=O)Cn1ccnc1C)c1cccc(F)c1 (configuration not stated) [AGI-5198]
relative IC50 [1]: > 10000 nM | relative IC50 [2]: > 10000 nM

O=C(Nc1ccc(OC(F)(F)F)cc1)c1sccc1NCc1ccnc2ccccc12 [OSI-930]
relative IC50 [1]: > 2500 nM | relative IC50 [2]: > 2500 nM

O=C(NOCC1CC1)c1ccc(F)c(F)c1Nc1ccc(I)cc1Cl
relative IC50 [3]: 1630 nM | relative IC50 [2]: > 10000 nM

Cc1cc(-c2ncc(-c3cccnc3)cc2/C=C/c2ccccc2)cnc1-c1cccnc1 [Pyridoclax]
relative IC50 [1]: 672 nM | relative IC50 [2]: > 25000 nM

Cc1ncc(Cl)cc1NCc1ccc(C(=O)N[C@@H](CC2CCCC2)C(=O)NC2CC2)s1
relative IC50 [1]: 103 nM | relative IC50 [2]: > 5000 nM

Clc1ccccc1C(c1ccccc1)(c1ccccc1)n1cccn1 [TRAM-34]
relative IC50 [1]: > 1000 nM | relative IC50 [2]: > 1000 nM

CN1CC[C@@H](NC(=O)Nc2ccc(C#N)cc2)C[C@@H]1c1nc2ccccc2[nH]1 [Glasdegib]
relative IC50 [1]: > 1000 nM | relative IC50 [2]: > 1000 nM

CC(C)Oc1cc(Nc2nc(N[C@@H](C)c3ccc(F)cn3)ncc2Cl)n[nH]1 [AZ-23]
relative IC50 [1]: 162 nM

COc1cc(C(=O)NC2CCN(C)CC2)c(F)cc1Nc1ncc2c(n1)N(C1CCCC1)CC(F)(F)C(=O)N2C [TAK-960]
relative IC50 [1]: > 2500 nM | relative IC50 [2]: > 2500 nM

Cc1nc(NC(=O)N2CCC[C@H]2C(N)=O)sc1-c1ccnc(C(C)(C)C(F)(F)F)c1 [Alpelisib]
relative IC50 [1]: 217 nM | relative IC50 [2]: > 2500 nM

CCN(c1cc(-c2ccc(CN3CCOCC3)cc2)cc(C(=O)NCc2c(C)cc(C)[nH]c2=O)c1C)C1CCOCC1 [Tazemetostat]
relative IC50 [1]: > 10000 nM | relative IC50 [2]: > 10000 nM

OCCn1cc(-c2cnc3nnn(Cc4ccc5ncccc5c4)c3n2)cn1
relative IC50 [3]: > 2500 nM | relative IC50 [2]: > 2500 nM

COc1ccc(Cl)c(Nc2nc3ccccc3nc2NS(=O)(=O)c2cccc(NC(=O)C(C)(C)N)c2)c1 [Pilaralisib]
relative IC50 [1]: 674 nM | relative IC50 [2]: > 2500 nM

O=C(Nc1cccc(C(F)(F)F)c1)Nc1cc(S(=O)(=O)NC2CC2)ccc1-c1ccsc1 [AGI-6780]
relative IC50 [3]: 1400 nM | relative IC50 [2]: > 10000 nM

O=C(NOC[C@H](O)CO)c1ccc(F)c(F)c1Nc1ccc(I)cc1F
relative IC50 [1]: > 1000 nM | relative IC50 [2]: > 1000 nM

N#CC1(c2ccc(NC(=O)c3cccnc3NCc3ccncc3)cc2)CCCC1 [Apatinib]
relative IC50 [3]: > 10000 nM | relative IC50 [2]: > 10000 nM

CCN1CCN(Cc2ccc(-c3cc4c(N[C@H](C)c5ccccc5)ncnc4[nH]3)cc2)CC1 [NVP-AEE788]
relative IC50 [3]: > 2500 nM | relative IC50 [2]: > 2500 nM

COc1cccc2c1c(O)c(C(=O)N(C)c1ccc(C(F)(F)F)cc1)c(=O)n2C [Tasquinimod]
relative IC50 [3]: > 10000 nM | relative IC50 [2]: > 10000 nM

COC(=O)N[C@@H](C)CNc1nccc(-c2cn(C(C)C)nc2-c2cc(Cl)cc(NS(C)(=O)=O)c2F)n1 [Encorafenib]
relative IC50 [1]: > 1000 nM | relative IC50 [2]: > 1000 nM

CCc1nc(-c2cccc(C)c2)c(-c2ccnc(NC(=O)c3ccccc3)c2)s1 [TAK-715]
relative IC50 [3]: 1210 nM | relative IC50 [2]: > 10000 nM

O=C(NC[C@H](O)CN1CCc2ccccc2C1)c1cc(NC2COC2)ncn1
relative IC50 [2]: > 10000 nM

O=C(Nc1cc(Cl)cc2c1[nH]c1cnccc12)c1cccnc1 [PS-1145]
relative IC50 [3]: > 25000 nM | relative IC50 [2]: > 25000 nM

CN1CCN(C2CCN(C(=O)Nc3cc(Oc4ccc(NC(=O)C5(C(=O)Nc6ccc(F)cc6)CC5)c(F)c4)ccn3)CC2)CC1 [Golvatinib]
relative IC50 [2]: > 2500 nM

Cc1cccc(-c2[nH]c(CNc3ccccc3F)nc2-c2ccc3ncnn3c2)n1 [TEW-7197]
relative IC50 [1]: > 2500 nM | relative IC50 [2]: > 2500 nM

Cc1[nH]c(/C=C2\C(=O)Nc3ccccc32)c(C)c1CCC(=O)O [Orantinib]
relative IC50 [3]: > 10000 nM | relative IC50 [2]: 205 nM

Source: the supplement of paper PMC5579334
